SMILES strings stand for the structures.

In one test the test system is cortical cell cultures. In words: In Vitro Assay on Ischemia (glutamate toxicity after potassium cyanide / 2-deoxyglucose insult). It is filed as cell-based. Conditions: concentration required to cause a 50% reduction in glutamate toxicity following an ischemic insult. The protocol:
To examine the in vitro effect of the inventive compounds on ischemia, cortical cell cultures were treated with various compounds of this invention during an ischemic insult utilizing potassium cyanide and 2-deoxyglucose, and for one hour thereafter. For a description of the experimental method used, see Vornov et al., J. Neurochem., Vol. 65, No. 4, pp. […] (1995).
As to `O=C(O)c1cccc(CC(CCCS)C(=O)O)c1` (stereo not drawn) [Compound 5, 3-carboxy-alpha-(3-mercaptopropyl)-benzenepropanoic acid], the EC50 (usually the concentration needed to bring the measured effect to its halfway point) stood at 6.5 nM. `O=C(O)c1ccc(F)c(OC(CCCS)C(=O)O)c1` (stereo not shown) [Compound 34, 3-(1-carboxy-4-mercaptobutoxy)-4-fluoro-benzoic acid] yielded an EC50 of 346 nM. Same read-out and setting: next, `O=C(O)c1ccc(F)c(CC(CCCS)C(=O)O)c1` (stereo not drawn) [Compound 35, 5-carboxy-2-fluoro-alpha-(3-mercaptopropyl)-benzenepropanoic acid]: 23 nM. Compound `COc1ccc(C(=O)O)cc1CC(CCCS)C(=O)O` (stereo not drawn) [Compound 36, 5-carboxy-alpha-(3-mercaptopropyl)-2-methoxy-benzenepropanoic acid] displayed an EC50 of 74.9 nM. On the same count and under the same terms, under `O=C(O)c1ccc(CC(CCCS)C(=O)O)c2ccccc12` (stereo not drawn) [Compound 37, 4-carboxy-alpha-(3-mercaptopropyl)-1-naphthalenepropanoic acid] stands 215 nM; under `O=C(O)c1ccccc1CC(CCCS)C(=O)O` (stereo not drawn) [Compound 38, 2-carboxy-alpha-(3-mercaptopropyl)-benzenepropanoic acid], 762 nM. On to `O=C(O)c1c(F)c(F)c(CC(CCCS)C(=O)O)c(F)c1F` (stereo not drawn) [Compound 39, 4-carboxy-2,3,5,6-tetrafluoro-alpha-(3-mercaptopropyl)-benzenepropanoic acid], for which the EC50 was 290 nM. On the same count and under the same terms, next, `O=C(O)C(CCCS)Sc1ccccc1` (stereo not shown) [Compound 40, 5-mercapto-2-(phenylthio)-pentanoic acid]: 452 nM. For the compound `O=C(O)C(CCCS)Cc1ccccc1Cl` (stereo not drawn) [Compound 43, 2-chloro-alpha-(3-mercaptopropyl)-benzenepropanoic acid], the midpoint of the response, the EC50, lay at 452 nM. The same measure, in the same setting: under `O=C(O)c1cc(Br)cc(CC(CCCS)C(=O)O)c1` (stereo not drawn) [Compound 45, 3-bromo-5-carboxy-alpha-(3-mercaptopropyl)-benzenepropanoic acid] stands 2 nM; under `O=C(O)CNC(=O)c1cccc(CC(CCCS)C(=O)O)c1` (stereo not drawn) [Compound 46, 3-[[(carboxymethyl)amino]carbonyl]-alpha-(3-mercaptopropyl)-benzenepropanoic acid], 544 nM. Compound `O=C(O)c1ccc(CC(CCCS)C(=O)O)cc1Br` (stereo not drawn) [Compound 47, 3-bromo-4-carboxy-alpha-(3-mercaptopropyl)-benzenepropanoic acid] came in with an EC50 of 119 nM. On the same count and under the same terms, under `O=C(O)c1cc(CC(CCCS)C(=O)O)cc([N+](=O)[O-])c1` (stereo not drawn) [Compound 48, 3-carboxy-alpha-(3-mercaptopropyl)-5-nitro-benzenepropanoic acid] stands 2.4 nM; under `O=C(O)c1ccc([N+](=O)[O-])c(CC(CCCS)C(=O)O)c1` (stereo not drawn) [Compound 50, 5-carboxy-alpha-(3-mercaptopropyl)-2-nitro-benzenepropanoic acid], 26 nM; under `O=C(O)c1cc(CC(CCCS)C(=O)O)cc(-c2ccccc2)c1` (stereo not shown) [Compound 55, 5-(2-carboxy-5-mercaptopentyl)-[1,1′-biphenyl]-3-carboxylic acid], 1 nM.

For `O=C(O)c1ccc(-c2ccccc2)c(CC(CCCS)C(=O)O)c1` (stereo not shown) [Compound 56], the EC50 stood at 11 nM. Consider `O=C(O)c1cccc(CC(CCCS)C(=O)O)c1-c1ccccc1` (stereo not shown) [Compound 57, 6-(2-carboxy-5-mercaptopentyl)-[1,1′-biphenyl]-2-carboxylic acid], for which it took 21 nM to reach a half-maximal effect (EC50). `O=C(O)c1cc(CC(CCCS)C(=O)O)ccc1-c1ccccc1` (stereo not shown) [Compound 58, 4-(2-carboxy-5-mercaptopentyl)-[1,1′-biphenyl]-2-carboxylic acid] yielded an EC50 of 16 nM.

The next test concerns chronic constrictive injury-induced rats. In words: Neuropathic pain in CCI model (sciatic nerve ligation, thermal hyperalgesia). It is filed as in vivo. The settings on record: 10, 1 or 0.1 mg/kg for 15 days after sciatic nerve ligation, FIGS. 13-15. The protocol: Sciatic nerve ligation, consisting of 4 ligatures tied loosely around the sciatic nerve at 1 mm intervals proximal to the nerve trifurcation, was performed on rats. […] The rats were habituated to a Hargreaves apparatus. An infrared heat source was directed onto the dorsal surface of each rat's hindpaws and the time taken for the rat to withdraw its paws was noted. The difference in scores between the latency of the response for the paw on the operated side versus the paw on the unoperated control side was determined.
The rats were treated with either Compound 49 (10, 1 or 0.1 mg/kg) or a vehicle for 15 days after sciatic nerve ligation. Thermal pain responses were measured at days 0, 1, 5, 8, 11 and 15. The differences in scores for the rats treated with a vehicle and the rats treated with Compound 49 are graphically presented in FIGS. 13-15.
The rats were treated with either Compound 5 (50, 30, 10, 3, 1 or 0.3 mg/kg) or a vehicle for 12 (or 15) days after sciatic nerve ligation. Thermal pain responses were measured at days 0, 1, 5, 8 and 12 (and 15). The differences in scores for the rats treated with a vehicle and the rats treated with Compound 5 are graphically presented in FIGS. 17-22.
The rats received either Compound C (50 mg/kg i.p. daily) or a vehicle starting 10 days post surgery. […] Normal (unoperated) rats had approximately equal latencies for both paws. This effect was significant starting at 11 days of drug treatment and persisted through to the end of the study (for 21 days of daily dosing).
In the case of `CC(C)(C)c1cc(CC(CCCS)C(=O)O)cc(C(=O)O)c1` (stereo not drawn) [Compound 49, 3-carboxy-5-(1,1-dimethylethyl)-alpha-(3-mercaptopropyl)-benzenepropanoic acid], the “difference in scores between the operated and unoperated paws” value is on record as “normalized the difference in scores”.

The same test, now with this note: 50, 30, 10, 3, 1 or 0.3 mg/kg for 12 (or 15) days after sciatic nerve ligation, FIGS. 17-22.
Turning to `O=C(O)c1cccc(CC(CCCS)C(=O)O)c1` (stereo not drawn) [Compound 5, 3-carboxy-alpha-(3-mercaptopropyl)-benzenepropanoic acid], the “difference in scores between the operated and unoperated paws” value is reported as “normalized the difference in scores”.

The next test has as its system STZ-diabetic rats. In words: Reversal of diabetic neuropathy in STZ model, delayed dosing. The settings on record: daily p.o., treatment started 5 weeks post STZ, within two weeks of treatment, FIG. 31. It is filed as in vivo. How it is done: Rats (200 to 225 g) were injected with STZ (70 mg/kg) into the tail vein. Diabetes (>350 mg/dl) was confirmed in all rats, 4 weeks after STZ administration. Rats were left untreated until 35 to 49 days after STZ. Compound D (1, 3, or 10 mg/kg), Compound E (10 mg/kg), or vehicle were dosed daily p.o. following confirmation of hyperalgesia and/or nerve conduction velocity deficits. In separate experiments, onset of treatment was delayed until 60 to 90 days after STZ administration. Nerve conduction velocity or withdrawal response to thermal stimulation of hind paws was measured at intervals, usually bi-weekly for thermal response and monthly for nerve conduction velocity.
Sensory and motor nerve conduction velocities were evaluated using the method of De Koning and Gispen (Peptides 8: 415–422, 1987). Electrophysiological evaluation was carried out within one hour of dosing. Animals were anesthetized with isoflurane and stimulating needle electrodes were inserted close to the sciatic nerve at the sciatic notch and the tibial nerve near the ankle. Recording electrodes were placed over the foot muscles. Stimuli were applied and responses recorded. Motor and sensory nerve conduction velocities were calculated by measuring the distance between the sciatic notch and ankle sites, and the latency between the M-wave and the H-reflex.
Animals were acclimated to the apparatus for at least 5 min. An infra-red source was placed under below the plantar surface of the rat hind-paw. The intensity of the source was adjusted so that latency for normal rats was about 10 secs. Animals were tested for thermal response latency according to the method of Hargreaves et al (Pain 77–88, 1988). Each animal was tested 8 times (4 each hind limb) and the latency of response recorded automatically to nearest 0.1 sec. An average of the last 4 measurements for each paw was calculated (8 total measurements) and noted for each rat.
`O=C(O)c1cccc(CC(CCCS)C(=O)O)c1` (stereo not drawn) [Compound 5, 3-carboxy-alpha-(3-mercaptopropyl)-benzenepropanoic acid]: the “neuropathic hyperalgesia (withdrawal latency difference scores)” value was “reversed towards normal”.

Still in this test, the particulars now being: daily p.o., within 8 weeks of dosing, persisted through 12 weeks, FIG. 32.
In the case of `O=C(O)c1cccc(CC(CCCS)C(=O)O)c1` (stereo not drawn) [Compound 5, 3-carboxy-alpha-(3-mercaptopropyl)-benzenepropanoic acid], the “motor nerve conduction velocity” value is reported as “reversed the motor nerve conduction velocity towards normal”.

The values above are taken from US6992215B2, “Thiol-based NAALADase inhibitors” (Guildford Pharmaceuticals Inc., priority 2001, dated 2006).
